Experimental data taken from PubChem BioAssay AID1963427 (Molecular Pharmacology Branch, DTP, NCI, 2024).

Test system: 317291-083-R-J1-PDC complex spheroid growth
Assay: Anticancer human tumor 317291-083-R-J1-PDC patient-derived soft tissue sarcoma cell line growth inhibition [Asc]
Settings: for IC50: curve of first compound; for viability, T/C: stronger effect = lower value
Method in brief: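 Tumor cells were grown as complex spheroids with human endothelial cells (HUVEC) and human mesenchymal stem cells as stroma. Agents were tested alone and in combination, in half-log steps down from the clinical Cmax, or from 10 microM where Cmax was unknown.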
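Also: compound exposure lasted seven days after spheroids formed for three days.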
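For viability, T/C in this document: 100% = DMSO vehicle control wells.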

**Q.** For `C#Cc1c(F)ccc2cc(O)cc(-c3ncc4c(N5CC6CCC(C5)N6)nc(OCC56CCCN5CC(F)C6)nc4c3F)c12` (centres undefined) + Cc1c(S(C)(=O)=O)c(-c2cc(F)cc(N3CCN(c4ccc(NS(=O)(=O)c5ccc(NC(CCN6CCC(C(=O)OCCCP(=O)(O)O)CC6)CSc6ccccc6)c(S(=O)(=O)C(F)(F)F)c5)cc4)CC3)c2)c(-c2ccc(Cl)cc2)n1C(C)C, which IC50 (second compound 0.0316 µM) is on record?
**A.** > 10000 nM

**Q.** And the IC50 (second compound 0.1 µM)?
**A.** > 10000 nM

**Q.** And the IC50 (second compound 0.316 µM)?
**A.** > 10000 nM

**Q.** What about the IC50 (second compound 1 µM) of the same compound?
**A.** > 10000 nM

**Q.** What about the IC50 (second compound 3.16 µM) of the same compound?
**A.** > 10000 nM

**Q.** And the IC50 (second compound 10 µM)?
**A.** 9940 nM

**Q.** And the viability, T/C (second compound 0.0316 µM, first compound 0.0316 µM)?
**A.** 105%

**Q.** And the viability, T/C (second compound 0.0316 µM, first compound 0.1 µM)?
**A.** 89%

**Q.** What about the viability, T/C (second compound 0.0316 µM, first compound 0.316 µM) of the same compound?
**A.** 102%

**Q.** And the viability, T/C (second compound 0.0316 µM, first compound 1 µM)?
**A.** 84.6%

**Q.** And the viability, T/C (second compound 0.0316 µM, first compound 3.16 µM)?
**A.** 96.7%

**Q.** What about the viability, T/C (second compound 0.0316 µM, first compound 10 µM) of the same compound?
**A.** 68.8%

**Q.** What about the viability, T/C (second compound 0.1 µM, first compound 0.0316 µM) of the same compound?
**A.** 86.5%

**Q.** What about the viability, T/C (second compound 0.1 µM, first compound 0.1 µM) of the same compound?
**A.** 101%

**Q.** And the viability, T/C (second compound 0.1 µM, first compound 0.316 µM)?
**A.** 92.1%

**Q.** And the viability, T/C (second compound 0.1 µM, first compound 1 µM)?
**A.** 87.7%

**Q.** What about the viability, T/C (second compound 0.1 µM, first compound 3.16 µM) of the same compound?
**A.** 96.7%

**Q.** And the viability, T/C (second compound 0.1 µM, first compound 10 µM)?
**A.** 70.1%

**Q.** What about the viability, T/C (second compound 0.316 µM, first compound 0.0316 µM) of the same compound?
**A.** 93.9%

**Q.** What about the viability, T/C (second compound 0.316 µM, first compound 0.1 µM) of the same compound?
**A.** 87.3%

**Q.** And the viability, T/C (second compound 0.316 µM, first compound 0.316 µM)?
**A.** 80.3%

**Q.** What about the viability, T/C (second compound 0.316 µM, first compound 1 µM) of the same compound?
**A.** 78.9%

**Q.** What about the viability, T/C (second compound 0.316 µM, first compound 3.16 µM) of the same compound?
**A.** 80.3%

**Q.** What about the viability, T/C (second compound 0.316 µM, first compound 10 µM) of the same compound?
**A.** 62.5%

**Q.** What about the viability, T/C (second compound 1 µM, first compound 0.0316 µM) of the same compound?
**A.** 90.7%

**Q.** What about the viability, T/C (second compound 1 µM, first compound 0.1 µM) of the same compound?
**A.** 70.3%

**Q.** And the viability, T/C (second compound 1 µM, first compound 0.316 µM)?
**A.** 83.4%

**Q.** And the viability, T/C (second compound 1 µM, first compound 1 µM)?
**A.** 67.6%

**Q.** And the viability, T/C (second compound 1 µM, first compound 3.16 µM)?
**A.** 74.9%

**Q.** What about the viability, T/C (second compound 1 µM, first compound 10 µM) of the same compound?
**A.** 58.4%

**Q.** What about the viability, T/C (second compound 3.16 µM, first compound 0.0316 µM) of the same compound?
**A.** 75.5%

**Q.** What about the viability, T/C (second compound 3.16 µM, first compound 0.1 µM) of the same compound?
**A.** 67.1%

**Q.** And the viability, T/C (second compound 3.16 µM, first compound 0.316 µM)?
**A.** 68.9%

**Q.** And the viability, T/C (second compound 3.16 µM, first compound 1 µM)?
**A.** 71.7%

**Q.** What about the viability, T/C (second compound 3.16 µM, first compound 3.16 µM) of the same compound?
**A.** 74.3%

**Q.** And the viability, T/C (second compound 3.16 µM, first compound 10 µM)?
**A.** 53.2%

**Q.** What about the viability, T/C (second compound 10 µM, first compound 0.0316 µM) of the same compound?
**A.** 79.9%

**Q.** And the viability, T/C (second compound 10 µM, first compound 0.1 µM)?
**A.** 101%

**Q.** What about the viability, T/C (second compound 10 µM, first compound 0.316 µM) of the same compound?
**A.** 89.2%

**Q.** What about the viability, T/C (second compound 10 µM, first compound 1 µM) of the same compound?
**A.** 76.9%

**Q.** And the viability, T/C (second compound 10 µM, first compound 3.16 µM)?
**A.** 80.5%

**Q.** What about the viability, T/C (second compound 10 µM, first compound 10 µM) of the same compound?
**A.** 49.1%

**Q.** What does the source list for `Cc1nc(N2CCC3(CC2)COC(C)C3N)c(CO)nc1Sc1ccnc(N)c1Cl` (centres undefined) + Cc1c(S(C)(=O)=O)c(-c2cc(F)cc(N3CCN(c4ccc(NS(=O)(=O)c5ccc(NC(CCN6CCC(C(=O)OCCCP(=O)(O)O)CC6)CSc6ccccc6)c(S(=O)(=O)C(F)(F)F)c5)cc4)CC3)c2)c(-c2ccc(Cl)cc2)n1C(C)C?
**A.** IC50 (second compound 0.0316 µM): 1960 nM; IC50 (second compound 0.1 µM): 2540 nM; IC50 (second compound 0.316 µM): 946 nM; IC50 (second compound 1 µM): 600 nM; IC50 (second compound 3.16 µM): 469 nM; IC50 (second compound 10 µM): 992 nM; viability, T/C (second compound 0.0316 µM, first compound 0.00949 µM): 96.4%; viability, T/C (second compound 0.0316 µM, first compound 0.03 µM): 77.5%; viability, T/C (second compound 0.0316 µM, first compound 0.0949 µM): 98.4%; viability, T/C (second compound 0.0316 µM, first compound 0.3 µM): 82.8%; viability, T/C (second compound 0.0316 µM, first compound 0.949 µM): 61.3%; viability, T/C (second compound 0.0316 µM, first compound 3 µM): 43.5%; viability, T/C (second compound 0.1 µM, first compound 0.00949 µM): 98.1%; viability, T/C (second compound 0.1 µM, first compound 0.03 µM): 92.1%; viability, T/C (second compound 0.1 µM, first compound 0.0949 µM): 81.9%; viability, T/C (second compound 0.1 µM, first compound 0.3 µM): 69.8%; viability, T/C (second compound 0.1 µM, first compound 0.949 µM): 51.3%; viability, T/C (second compound 0.1 µM, first compound 3 µM): 51%; viability, T/C (second compound 0.316 µM, first compound 0.00949 µM): 88.3%; viability, T/C (second compound 0.316 µM, first compound 0.03 µM): 91.3%; viability, T/C (second compound 0.316 µM, first compound 0.0949 µM): 74.4%; viability, T/C (second compound 0.316 µM, first compound 0.3 µM): 63.9%; viability, T/C (second compound 0.316 µM, first compound 0.949 µM): 52.2%; viability, T/C (second compound 0.316 µM, first compound 3 µM): 29.9%; viability, T/C (second compound 1 µM, first compound 0.00949 µM): 93.7%; viability, T/C (second compound 1 µM, first compound 0.03 µM): 73.2%; viability, T/C (second compound 1 µM, first compound 0.0949 µM): 68.8%; viability, T/C (second compound 1 µM, first compound 0.3 µM): 63.1%; viability, T/C (second compound 1 µM, first compound 0.949 µM): 39.2%; viability, T/C (second compound 1 µM, first compound 3 µM): 37.9%; viability, T/C (second compound 3.16 µM, first compound 0.00949 µM): 86.5%; viability, T/C (second compound 3.16 µM, first compound 0.03 µM): 69.8%; viability, T/C (second compound 3.16 µM, first compound 0.0949 µM): 66.2%; viability, T/C (second compound 3.16 µM, first compound 0.3 µM): 58.6%; viability, T/C (second compound 3.16 µM, first compound 0.949 µM): 42.2%; viability, T/C (second compound 3.16 µM, first compound 3 µM): 20.4%; viability, T/C (second compound 10 µM, first compound 0.00949 µM): 86.5%; viability, T/C (second compound 10 µM, first compound 0.03 µM): 87.3%; viability, T/C (second compound 10 µM, first compound 0.0949 µM): 81.7%; viability, T/C (second compound 10 µM, first compound 0.3 µM): 67.5%; viability, T/C (second compound 10 µM, first compound 0.949 µM): 52%; viability, T/C (second compound 10 µM, first compound 3 µM): 26.7%
